In general, Emax refers to the maximal effect, on the per cent scale that the assay sets. One may read the EC50 as the concentration at which the effect is half-maximal. Lower therefore signals greater potency. The Ki is a dissociation constant, usually derived from enzyme kinetics or from competition with a known ligand. What is called half-life is the time needed for the level to fall by half in the phase considered. Low values mean fast loss, high ones slow loss. Usually bioavailability stands for dose-corrected exposure relative to a reference, in per cent. Higher therefore signals much systemic uptake. What is called ED50 is the dose that gives a 50% effect, or the effect in half of the subjects.

SMILES strings stand for the structures.

Here are results for 17 compounds from ChEMBL document CHEMBL4706699, “Novel (R)-6,6a,7,8,9,10-hexahydro-5H-pyrazino[1,2-a][1,n]naphthyridines as potent and selective agonists of the 5-HT receptor” (Bioorg Med Chem Lett, 2021).

In series [1] the target is 5-HT2A receptor (Homo sapiens, UniProt P28223). The series is described as follows: Agonist activity at 5-HT2AR (unknown origin) transfected in human HEK293 cells at 10 uM by IP3 accumulation assay relative to control. The settings on record: HEK293 cells transfected with 5-HT2AR. Format: cell-based.
For series [2], the target named is T1, 5-hydroxytryptamine receptor 2A (Homo sapiens, UniProt P28223). The series is described as follows: Agonist activity at 5-HT2AR (unknown origin) transfected in human HEK293 cells by IP3 accumulation assay. It counts as cell-based.
Series [3] is described as follows: Metabolic stability in rat liver microsomes assessed as parent compound remaining at 1 uM incubated for 45 mins. Particulars: read-out: Stabilty. It counts as ADME, Microsome. For orientation: Liver microsomes are a subcellular fraction often used to study metabolism.
Series [4] deals with T2, 5-hydroxytryptamine receptor 2C (Homo sapiens, UniProt P28335).
T2 sequence (P28335 whole entry): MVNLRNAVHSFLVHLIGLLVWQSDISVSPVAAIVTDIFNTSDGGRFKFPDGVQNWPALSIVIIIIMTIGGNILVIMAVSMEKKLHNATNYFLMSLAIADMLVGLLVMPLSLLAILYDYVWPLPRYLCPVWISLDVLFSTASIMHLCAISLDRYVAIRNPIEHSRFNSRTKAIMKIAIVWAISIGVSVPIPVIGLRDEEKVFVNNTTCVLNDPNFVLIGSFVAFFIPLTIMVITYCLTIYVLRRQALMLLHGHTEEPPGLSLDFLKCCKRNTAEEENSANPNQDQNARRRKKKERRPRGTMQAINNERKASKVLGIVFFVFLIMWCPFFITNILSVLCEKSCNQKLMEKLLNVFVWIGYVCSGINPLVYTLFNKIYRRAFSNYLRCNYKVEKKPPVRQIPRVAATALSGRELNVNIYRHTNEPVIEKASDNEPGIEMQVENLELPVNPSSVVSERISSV
Description: Displacement of [125I]-DOI from recombinant human 5HT2CR transfected in human HEK293 cells incubated for 45 mins by radioligand binding assay. It counts as cell-based. (In general: In a radioligand displacement assay an active substance lowers the binding of a labelled ligand.)

The target of series [5] is T3, 5-hydroxytryptamine receptor 2B (Homo sapiens, UniProt P41595). Description: Displacement of [3H]-[…] from recombinant human 5HT2BR transfected in human HEK293 cells incubated for 45 mins by radioligand binding assay. Format: cell-based.
Series [6] deals with T3, 5-hydroxytryptamine receptor 2B. The series is described as follows: Agonist activity at 5-HT2BR (unknown origin) transfected in human HEK293 cells by IP3 accumulation assay. It counts as cell-based.
Series [7] has as its target T4, 5-hydroxytryptamine receptor 2C (Homo sapiens) (UniProt P28335).
T4 sequence (whole entry): T2 sequence (P28335 whole entry)
Description: Agonist activity at 5-HT2CR (unknown origin) transfected in human HEK293 cells at 10 uM by IP3 accumulation assay relative to control. It counts as functional, cell-based. Particulars: filed as agonist.

The nature of series [8]: Metabolic stability in human liver microsomes assessed as parent compound remaining at 1 uM incubated for 45 mins. Format: ADME, Microsome. The settings on record: read-out: Stabilty.
Series [9] concerns the target T2, 5-hydroxytryptamine receptor 2C. The series is described as follows: Agonist activity at 5-HT2CR (unknown origin) transfected in human HEK293 cells by IP3 accumulation assay. It counts as functional, cell-based.
In series [10] the target is 5-HT2B receptor (Homo sapiens, UniProt P41595). Description: Agonist activity at 5-HT2BR (unknown origin) transfected in human HEK293 cells at 10 uM by IP3 accumulation assay relative to control. Format: cell-based. The settings on record: HEK293 cells transfected with 5-HT2BR.
Series [11] concerns the target T1, 5-hydroxytryptamine receptor 2A. The series is described as follows: Displacement of [3H]-DOI from recombinant human 5HT2AR transfected in human HEK293 cells incubated for 45 mins by radioligand binding assay. Format: cell-based.
A short description of series [12]: Half life in po dosed Sprague-Dawley rat. It counts as ADME, organism-based. The settings on record: in vivo.
A short description of series [13]: Oral bioavailability in Sprague-Dawley rat. Particulars: in vivo. It counts as ADME, organism-based.
Series [14] can be described thus: Ratio of unbound drug level in po dosed Sprague-Dawley rat brain to plasma measured after 2 hrs. Format: ADME, organism-based. The settings on record: read-out: K(p,uu,brain).
Series [15] in a line: (§1) In vivo agonist activity at 5HT2CR in po dosed Sprague-Dawley rat assessed as reduction in food intake measured at 1 hr. Format: functional.
Series [16] has as its system Rattus norvegicus. The series is described as §1. Format: functional.

Chain of 5-HT2A receptor (P28223 whole entry): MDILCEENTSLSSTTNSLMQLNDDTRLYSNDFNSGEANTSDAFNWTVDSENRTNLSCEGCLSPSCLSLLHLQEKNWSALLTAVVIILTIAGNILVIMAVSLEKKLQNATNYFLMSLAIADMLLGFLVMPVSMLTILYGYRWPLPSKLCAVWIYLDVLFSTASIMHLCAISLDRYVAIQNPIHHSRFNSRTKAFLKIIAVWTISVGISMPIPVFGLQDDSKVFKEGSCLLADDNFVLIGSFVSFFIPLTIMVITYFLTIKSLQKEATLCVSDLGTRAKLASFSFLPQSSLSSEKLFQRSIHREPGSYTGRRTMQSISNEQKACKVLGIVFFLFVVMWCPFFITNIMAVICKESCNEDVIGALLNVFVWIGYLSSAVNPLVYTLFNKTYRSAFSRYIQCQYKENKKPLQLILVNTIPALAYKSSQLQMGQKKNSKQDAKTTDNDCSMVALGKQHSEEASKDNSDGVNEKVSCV
T1 sequence (P28223 whole entry): as above
T3 sequence (P41595 whole entry): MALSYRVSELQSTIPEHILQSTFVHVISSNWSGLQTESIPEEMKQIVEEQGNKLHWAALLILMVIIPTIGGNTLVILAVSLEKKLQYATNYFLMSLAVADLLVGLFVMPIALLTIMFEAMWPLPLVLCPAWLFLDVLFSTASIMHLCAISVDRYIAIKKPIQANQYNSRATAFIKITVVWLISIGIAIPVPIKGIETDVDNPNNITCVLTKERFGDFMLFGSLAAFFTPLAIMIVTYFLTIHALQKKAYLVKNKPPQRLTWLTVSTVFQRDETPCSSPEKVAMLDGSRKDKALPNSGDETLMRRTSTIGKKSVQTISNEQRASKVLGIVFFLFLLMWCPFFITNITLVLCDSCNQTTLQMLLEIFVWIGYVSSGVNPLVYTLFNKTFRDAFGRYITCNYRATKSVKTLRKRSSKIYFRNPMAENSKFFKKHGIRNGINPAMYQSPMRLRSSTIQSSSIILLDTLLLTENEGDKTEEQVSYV
Chain of 5-HT2B receptor (P41595 whole entry): as above

`CCCc1cccc2c1CC[C@@H]1CNCCN21`: the Emax at 10 µM was 74% in [1] and 82% in series [10]. Further, the EC50 in series [2] is 158 nM; in series [6], 100 nM; in series [9], 0.2 nM. Moreover, the remaining at 0.75 h, 1 µM in series [3] is 38%; in series [8] it was 13%. Further, the Ki in [4] was 0.316 nM; in series [5] it was 12.6 nM; in [11], 5.01 nM. Moreover, the Emax in [7] is 107%.
As for `c1cc2c(cn1)N1CCNC[C@H]1CC2`, the EC50 is over 10000 nM in series [2], 794 nM in series [6] and 316 nM in series [9]. In series [7], this compound showed an Emax of 98%. The compound further displayed an Emax at 10 µM in [10] of 28%.
Turning to `c1cc(C2CC2)c2c(n1)N1CCNC[C@H]1CC2`, the Emax at 10 µM in [1] is 117%; in [10], 34%. The EC50 was 398 nM in series [2], 15.8 nM in series [6] and 6.31 nM in [9]. This compound returned an Emax in [7] of 99%.
In the case of `c1cc(CC2CCC2)c2c(n1)N1CCNC[C@H]1CC2`, the figures for the remaining at 0.75 h, 1 µM in series [3] and in [8] were 67% and 78%, respectively. For the same compound, the Emax in series [7] worked out at 108%. For the same compound, the Emax at 10 µM in series [10] came to 17%.
For the compound `COCc1ccnc2c1CC[C@@H]1CNCCN21`, the maximum response (Emax) in series [7] was 109%. Moreover, the Emax at 10 µM in series [10] turned out to be 38%.
As to `CCCc1cncc2c1CC[C@@H]1CNCCN21`, the figures for the remaining at 0.75 h, 1 µM in series [3] and in series [8] were 14% and 5%, respectively. The same compound registered an Emax in [7] of 106%. For the same compound, in [11], the Ki is 39.8 nM.
In the case of `c1ccc(Cc2cncc3c2CC[C@@H]2CNCCN32)cc1`, the results for the Ki in [4] and in series [5] were 0.501 nM and 251 nM, respectively. Besides, the EC50 was over 10000 nM in series [6] and 0.631 nM in series [9]. For the same compound, the Emax in series [7] came to 110%.
In the case of `FC(F)(F)CCc1ccnc2c1CC[C@@H]1CNCCN21`, the Emax at 10 µM was 134% in [1] and 31% in series [10]. Moreover, the remaining at 0.75 h, 1 µM in [3] amounted to 80%; in [8], 100%. The compound further gave a half-life in series [12] of 2.9 h. Moreover, the bioavailability in series [13] came out at 54%. The Kp uu at 2 h in series [14] was 1.3. The compound further gave an Emax in series [7] of 97%. The ED50 in [15] came to 0.7 mg/kg. Further, in [16], the Activity result was “Dose-dependent effect”.
In turn, `Cc1ccnc2c1CC[C@@H]1CNCCN21` displayed an Emax in series [7] of 102%. Also, the Emax at 10 µM in series [10] is 52%.
Turning to `Clc1ccnc2c1CC[C@@H]1CNCCN21`, the Emax at 10 µM in [1] is 90%; in series [10] it was 62%. Also, the EC50 in [2] was 1260 nM; in series [6], 50.1 nM; in series [9] it was 5.01 nM. In addition, the Emax in series [7] is 99%.
Take `CC(C)Cc1ccnc2c1CC[C@@H]1CNCCN21`: the figures for the remaining at 0.75 h, 1 µM in [3] and in series [8] were 24% and 14%, respectively. Further, the Ki in [4] is 0.631 nM; in series [5], 31.6 nM. The values for the EC50 in series [6] and in series [9] were 316 nM and 0.398 nM, respectively. Moreover, in series [7], the Emax is 102%. The Emax at 10 µM in series [10] amounted to 22%.
As to `c1cnc2c(c1)CC[C@@H]1CNCCN21`, the EC50 is over 10000 nM in series [2], 63.1 nM in series [6] and 100 nM in series [9]. Besides, the Emax in series [7] was determined as 92%. This compound also had an Emax at 10 µM in [10] of 19%.
Turning to `CCCc1ccnc2c1CC[C@@H]1CNCCN21`, the remaining at 0.75 h, 1 µM in [3] turned out to be 27%; in series [8], 29%. Besides, the Ki in series [4] was 0.158 nM; in series [11] it was 6.31 nM. The same compound showed an Emax in series [7] of 99%. This compound had an EC50 in series [9] of 0.0631 nM. The Emax at 10 µM in series [10] is 54%.
On to `FC(F)(F)CCc1cccc2c1CC[C@@H]1CNCCN21`, for which the Emax at 10 µM came to 114% in series [1] and 48% in series [10]. Moreover, the EC50 in series [2] was 1000 nM; in [6], 3160 nM; in series [9], 3.16 nM. For the same compound, the figures for the remaining at 0.75 h, 1 µM in series [3] and in series [8] were 23% and 81%, respectively. Further, the results for the Ki in [4], in series [5] and in [11] were 2 nM, 100 nM and 20 nM, respectively. Also, the Emax in [7] stood at 95%.
For `c1ccc(Cc2ccnc3c2CC[C@@H]2CNCCN32)cc1`, the Emax at 10 µM in series [1] was 114%; in [10], 25%. Also, the results for the EC50 in series [2] and in [9] were 50.1 nM and 0.126 nM, respectively. The Ki in series [4] is 0.251 nM; in series [11], 1.26 nM. In [7], this compound displayed an Emax of 107%.
Turning to `c1cc2c(cn1)CC[C@@H]1CNCCN21`, the EC50 in [2], in series [6] and in [9] was over 10000 nM each time.
With `c1cc2c(c(CC3CCC3)n1)CC[C@@H]1CNCCN21`, the EC50 in series [2] is over 10000 nM; in [6] it was over 10000 nM; in series [9], over 1000 nM.
